Target: T1, binding between ALS-related mutant SOD1 (Flag-SOD1 G93A) and Derlin-1 (Derlin-1-HA) (Homo sapiens, UniProt P00441+Q9BUN8, G94A)
T1 construct: expressed in transfected cells; host or cells: HEK293A
Experiment: Cell-based co-immunoprecipitation assay of mutant SOD1 (G93A)-Derlin-1 binding
Design: key to Activity value (score): a compound exhibiting no inhibitory activity is set at 0; a compound exhibiting inhibitory activity is set at 1; a compound exhibiting significant inhibitory activity is set at 2; a compound having higher inhibitory activity than the compound of Example 1 is set at 3
Settings: assay concentration 20 μM; HEK293A cells overexpressing Flag-SOD1 G93A and Derlin-1-HA
Procedure: As cells, human embryonic kidney-derived, Human Embryonic Kidney 293A (HEK293A) cells were used. The cells were cultured in High Glucose Dulbecco's modified Eagle's medium (DMEM: 4.5 mg/ml glucose, Sigma) supplemented with complement-inactivated 10% fetal bovine serum (FBS, Vitromex) and 100 units/mL Penicillin G (Meiji), which was placed in an incubator set at conditions of 37° C. and 5% CO2.
Transfection into the HEK293A cells was carried out using PEI-Max (Polyscience) at a ratio of 3 μL of PEI-Max to 1 μg of plasmid. DMEM was mixed with PEI-Max, and the mixture was then left at rest for 5 minutes. Thereafter, the reaction mixture was added to the plasmid DNA dissolved in DMEM, and the thus obtained mixture was further left at rest for 15 minutes. After seeding, the culture was carried out for 12 to 24 hours, and the resultant was then added to a culture medium of cells, in which the medium had been exchanged with DMEM supplemented only with 10% FBS.
pcDNA3.0-Derlin-1-HA, pcDNA3.0-Flag-SOD1 G93A, and 123 types of other mutants.
In the lysis of HEK293A cells for use in a co-immunoprecipitation experiment, an IP lysis buffer (20 mM Tris-HCl (pH 7.5), 150 mM NaCl, 10 mM EDTA (pH 8.0), 1% Triton-X 100, 5 μg/mL leupeptin, and 1 mM phenylmethylsulfonyl fluoride) was used.
After the transfection on a 24-well plate, the cells were cultured for 12 hours or 24 hours, and the obtained cell culture was exchanged with 200 μL of medium. Thereafter, 1% DMSO or various types of compounds having each different concentration were added into the culture. Thirty-six hours or twenty-four hours later, the cells were incubated in the IP lysis buffer (300 μL/well) at 4° C. for 25 minutes, so that the cells were lysed. The cell lysate was centrifuged at 4° C. at 15000 rpm for 10 minutes, and a supernatant was then recovered. To this supernatant, Anti-Flag M2 affinity gel was added in a liquid amount of 20 μL, and they were allowed to react with each other by subjecting the obtained mixture to inversion mixing at 4° C. for 25 minutes. After completion of the reaction, a supernatant was removed, and the residue was washed twice with High salt wash buffer (1% Triton X 100, 500 mM NaCl, 20 mM Tris-HCl (pH 7.5), and 5 mM EGTA), and was then washed once with Low salt wash buffer (150 mM NaCl, 20 mM Tris-HCl (pH 7.5), and 5 mM EGTA). Finally, 50 μL of a 2×SDS sample buffer was added to the resultant, and the obtained mixture was then boiled at 98° C. for 3 minutes to obtain an SDS-PAGE sample. Regarding the lysate, a 2×SDS sample buffer was added in an amount equal to the supernatant, and the obtained mixture was then boiled at 98° C. for 3 minutes to obtain an SDS-PAGE sample.
After completion of SDS-PAGE, a protein was transferred from the gel into a polyvinylidene difluoride membrane (PVDF) ([…], Pall), and was then blocked with TBS-T (150 mM NaCl, 50 mM Tris-HCl (pH 8.0), and 0.05% Tween 20) supplemented with 5% skimmed milk at room temperature for 2 hours or more. Thereafter, a primary antibody diluted with TBS-T supplemented with 5% bovine serum albumin and 0.1% NaN3 was allowed to bind to each molecule on the PVDF membrane at 4° C. for 12 hours or more. After completion of the reaction, a secondary antibody (HRP-linked 2nd antibody) diluted with TBS-T supplemented with 5% skimmed milk was allowed to bind to the primary antibody at room temperature for 1 hour. Thereafter, the resultant was washed with TBS-T for 15 minutes, 3 or more times, and detection was then carried out using an enhanced chemiluminescence (ECL) system.
With regard to the compounds of the present invention (Example Compound 1 to Example Compound 47), whether or not the present compound can inhibit the binding between ALS-related mutant SOD1 and Derlin-1 in a cell by being added into a cell culture solution was examined according to a co-immunoprecipitation experiment. […]

T1 sequence (P00441 whole entry G94A, species assumed): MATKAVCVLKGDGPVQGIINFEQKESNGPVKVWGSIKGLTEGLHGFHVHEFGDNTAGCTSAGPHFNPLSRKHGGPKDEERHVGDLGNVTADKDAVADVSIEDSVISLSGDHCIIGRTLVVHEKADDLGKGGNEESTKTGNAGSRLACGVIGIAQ
T1 sequence (Q9BUN8 whole entry, species assumed, stated change not applied): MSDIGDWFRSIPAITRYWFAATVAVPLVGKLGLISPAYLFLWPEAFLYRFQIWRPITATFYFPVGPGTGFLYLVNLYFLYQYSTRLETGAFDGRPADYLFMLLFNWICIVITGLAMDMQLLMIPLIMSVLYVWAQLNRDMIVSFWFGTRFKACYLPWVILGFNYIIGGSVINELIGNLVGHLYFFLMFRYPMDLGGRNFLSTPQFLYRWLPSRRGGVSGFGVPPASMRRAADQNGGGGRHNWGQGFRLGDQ

Nc1c(C(=O)N2CCCc3ccccc32)sc2nc(-c3cccnc3)ccc12 [Example 3, (3-Amino-6-(3-pyridinyl)thieno[2,3-b]2-pyridinyl)(3,4-dihydro-1(2H)-quinolyl)methanone]
Activity value (score): 2
